solubility, water solubility and pKa data for one compound are collected here from patent EP4079295A1, “COMPOSITION HAVING IMPROVED SOLUBILITY AND BIOAVAILABILITY OF OLAPARIB” (Samyang Holdings Corporation, priority 2019, dated 2021).

The structures appear in SMILES notation. Converted amounts (≈) assume the structure as drawn.

Data set [1] is described as follows: Test Example 1: drug solubility, simple mixture versus solid dispersion. It is filed as physicochemical. As to conditions: thermodynamic from solid, 20 ml, amount corresponding to 400 mg of Olaparib, 37°C, 100 rpm. As to the method: To 20 ml of distilled water and pH 1.2 buffer, each of the solid dispersions of Example 1 and 4 and the simple mixtures of Comparative Examples 2 and 3 corresponding to 400 mg of Olaparib was added, and stirred in an incubator at 37°C with 100 rpm for 1 hour. The test solution was filtered with RC syringe filter (0.2 µm) and 1 mL of the filtered solution was taken and diluted with 2 mL of the following diluent solution, and then the amount was measured according to Olaparib amount analysis method.
• 1) Diluent solution preparation Diluent solution - water (DW): acetonitrile (CAN)=1:1 • 2) Operation • Detector: UV absorption spectrometer 254 nm • Column: Nova-Pak C18 Column, 60Å, 4 µm, 3.9 mm × 150 mm • Flow rate: 1.2 ml/min • Injection amount: 5 µl • Column temperature: 35°C • Run time: 16 min • Mobile phase [Table 4]

The conditions of data set [2]: cited from earlier work.

In the case of `O=C(c1cc(Cc2n[nH]c(=O)c3ccccc23)ccc1F)N1CCN(C(=O)C2CC2)CC1` [Olaparib], the solubility at 1 h in data set [1] (simulated gastric fluid, pH 1.2 buffer) is 100 µg/mL (≈ 230 µM); in data set [1] (water (distilled water)), 100 µg/mL (≈ 230 µM). For the same compound, in data set [2], the water solubility is 100 to 130 µg/mL. In addition, in data set [2] (weak acidic), the pKa was 12.07.

The solubility is the dissolved amount per volume that the medium holds. For orientation: pKa means the negative logarithm of the acid dissociation constant.
